Data reported in ChEMBL document CHEMBL1201862, “PubChem BioAssay data set” (2004).
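Dose response: 5 concentrations. Exposure: 48 h. Format: 96-well plates. Endpoint: linear interpolation; highest concentration if not reached. At the GI50, growth is halved.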 The source made the active and inactive calls. Cut-off read from the data, not from the text of the source: active = GI50 up to about 1.1 µM and inactive = higher.

Assays:
Experiment in all cases: DTP human tumour cell line panel, 48 h
LXFL 529 = system: LXFL 529
KM-20L2 = system: KM-20L2
RXF 631 = system: RXF 631
HOP-18 = system: HOP-18
DMS-114 = system: DMS-114
DLD-1 = system: DLD-1
DMS-273 = system: DMS-273
XF498 = system: XF498
T47D = system: T47D

Measured: GI50

CC1=C(C(=O)CC(=O)C(=O)Nc2ccc(Cl)cc2C)Sc2ccccc2N1
inactive: LXFL 529 > 100 µM | KM-20L2 > 100 µM | RXF 631 > 100 µM | HOP-18 > 100 µM | DMS-114 > 92.7 µM | DLD-1 > 100 µM | DMS-273 > 100 µM | XF498 > 100 µM

Clc1cccc(Cl)c1C1SCc2nc3ccccc3n21 (configuration not stated)
inactive: LXFL 529 > 100 µM | KM-20L2 43.2 µM | RXF 631 15.4 µM | HOP-18 > 100 µM | DMS-114 25.2 µM | DLD-1 51.1 µM | DMS-273 14.6 µM | XF498 > 100 µM

C/C1=C/C2OC(=O)C3(C)C2C(CC2(C)OC1=CC2=O)OC3(O)C(C)C (configuration not stated)
inactive: T47D 58.2 µM | LXFL 529 27.4 µM | KM-20L2 21.8 µM | RXF 631 33.1 µM | HOP-18 37.8 µM | DMS-114 14.3 µM | DLD-1 32.7 µM | DMS-273 33 µM | XF498 23.7 µM

N=C(N)NS(=O)(=O)c1ccc(NC(=O)c2cccc3c(Nc4ccc(S(=O)(=O)N=C(N)N)cc4)c4ccccc4nc23)cc1
inactive: LXFL 529 26.5 µM | KM-20L2 37.5 µM | RXF 631 > 100 µM | HOP-18 > 100 µM | DMS-114 24.9 µM | DLD-1 92.9 µM | DMS-273 55.2 µM | XF498 > 100 µM

C#Cc1cccc(N2C(=O)CCC2=O)c1
inactive: T47D 18.9 µM | LXFL 529 11.1 µM | KM-20L2 25.8 µM | RXF 631 21.5 µM | HOP-18 16.7 µM | DMS-114 14.8 µM | DLD-1 17.9 µM | DMS-273 23.2 µM | XF498 15 µM

Cc1cccc(C(C)C)c1NC(=O)C(=O)C(C(=O)c1ccccc1F)C1OC(=O)c2ccccc21 (configuration not stated)
inactive: LXFL 529 11.9 µM | KM-20L2 29.2 µM | RXF 631 18.6 µM | HOP-18 3.59 µM | DMS-114 10.2 µM | DLD-1 14.8 µM | DMS-273 19 µM | XF498 10.4 µM

Cn1cnc([N+](=O)[O-])c1Sc1n[nH]c(-c2ccc(Cl)cc2)n1
inactive: LXFL 529 11.7 µM | RXF 631 20.7 µM | HOP-18 1.47 µM | DMS-114 18.2 µM | DLD-1 18.4 µM | DMS-273 16.9 µM | XF498 10.1 µM
